# In patent publication US20050228016A1, “TETRAHYDROQUINOLINES FOR MODULATING THE EXPRESSION OF EXOGENOUS GENES VIA AN ECDYSONE RECEPTOR COMPLEX” (priority 2002, published 2005):
# Columns and labels:
# DmEcR + LmUSP = molecular target: T1, DmEcR + LmUSP (Drosophila melanogaster, UniProt P34021); details: DmEcR + LmUSP in 3T3 cells, reporter assayed 48 h after ligand
# T1 sequence (P34021 342-878): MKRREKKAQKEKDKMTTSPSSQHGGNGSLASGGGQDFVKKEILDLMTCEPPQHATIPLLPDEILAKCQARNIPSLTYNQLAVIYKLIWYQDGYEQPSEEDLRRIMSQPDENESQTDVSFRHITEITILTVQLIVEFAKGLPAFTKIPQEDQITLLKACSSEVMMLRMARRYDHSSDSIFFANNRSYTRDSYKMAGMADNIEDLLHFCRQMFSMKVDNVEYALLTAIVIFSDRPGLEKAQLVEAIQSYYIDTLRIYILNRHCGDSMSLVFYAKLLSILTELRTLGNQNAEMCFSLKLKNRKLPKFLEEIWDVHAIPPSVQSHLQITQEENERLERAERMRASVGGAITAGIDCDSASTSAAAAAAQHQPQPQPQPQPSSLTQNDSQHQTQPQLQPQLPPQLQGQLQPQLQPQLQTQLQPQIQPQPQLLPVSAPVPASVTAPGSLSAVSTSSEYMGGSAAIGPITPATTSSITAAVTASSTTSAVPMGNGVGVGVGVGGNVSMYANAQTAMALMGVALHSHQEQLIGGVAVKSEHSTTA
# Experimental: (§4) To determine if any of the compounds shown in Table 1 and Table 2 can act as inducers of reporter gene activity in a transactivation assay, these compounds were tested in NIH3T3 cells transfected with pFRLUC reporter and gene expression cassettes, 1.1 to 1.8 described in Example 1. […] At 48 hr after adding ligand, the cells were harvested and reporter activity was assayed using Dual Luciferase assay kit (Promega carporation). Total relative light units (RLU) are shown. Standard methods for culture and maintenance of the cells were followed.
# (§5) Transfections: DNAs corresponding to the various switch constructs outlined in Example I, specifically switches 1.1 through 1.8, were transfected into mouse NIH3T3 cells (ATCC) as follows. Cells were harvested when they reached 50% confluency and plated in 6-, 12- or 24-well plates at 125,000, 50,000, or 25,000 cells, respectively, in 2.5, 1.0, or 0.5 ml of growth medium containing 10% fetal bovine serum (FBS), respectively. The next day, the cells were rinsed with growth medium and transfected for four hours. […] For 12-well plates, 4 μl of Superfect™ was mixed with 100 μl of growth medium. 1.0 μg of reporter construct and 0.25 μg of each receptor construct of the receptor pair to be analyzed were added to the transfection mix. A second reporter construct was added [pTKRL (Promega), 0.1 μg/transfection mix] that comprises a Renilla luciferase gene operably linked and placed under the control of a thymidine kinase (TK) constitutive promoter and was used for normalization. The contents of the transfection mix were mixed in a vortex mixer and let stand at room temperature for 30 min. At the end of incubation, the transfection mix was added to the cells maintained in 400 μl growth medium. The cells were maintained at 37° C. and 5% CO2 for four hours. At the end of incubation, 500 μl of growth medium containing 20% FBS and either dimethylsulfoxide (DMSO; control) or a DMSO solution of 0.1, 1, and 10 μM ligand was added and the cells were maintained at 37° C. and 5% CO2 for 48 hours. The cells were harvested and reporter activity was assayed. The same procedure was followed for 6 and 24 well plates as well except all the reagents were doubled for 6 well plates and reduced to half for 24-well plates.
# (§6) Ligands: All ligands were dissolved in DMSO and the final concentration of DMSO was maintained at 0.1% in both controls and treatments.
# (§7) Reporter Assays: Cells were harvested 48 hours after adding ligands. 125, 250, or 500 μl of passive lysis buffer (part of Dual-luciferase™ reporter assay system from Promega Corporation) were added to each well of 24- or 12- or 6-well plates respectively. The plates were placed on a rotary shaker for 15 minutes. Twenty μl of lysate were assayed. Luciferase activity was measured using Dual-luciferase™ reporter assay system from Promega Corporation following the manufacturer's instructions.
# CfEcR + LmUSP = CfEcR + LmUSP in 3T3 cells, reporter assayed 48 h after ligand
# Experimental: 1.9—Gal4CfEcR-DEF/VP16LmRXR-EF: This construct was prepared in the same way as switch 1.1 except LmRXR-EF (SEQ ID NO: 18) was used in place of HsRXRβ-LmRXREF chimera.
# as §4, §5, §6, §7
# Gal4DBD/AaEcR (DEF) = molecular target: T2, Gal4DBD/AaEcR (DEF) (Aedes aegypti, UniProt P49880); experiment: cell-based; assay type: cell-based; details: 33 μM; 3T3 cells; 48 h; average of two wells
# T2 construct: The wildtype D, E, and F domains from mosquito Aedes aegypti EcR; expressed in transfected cells; host or cells: 3T3 cells
# How it was run: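 Mouse 3T3 cells transiently co-transfected with Gal4DBD/AaEcR (DEF) and pFRLuc (5× GAL4 response element, firefly luciferase reporter). Ligand added in serum medium 4 h after transfection; single-dose testing at 33 μM.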
# [1] = molecular target: T3, Bombyx mori EcR (VP16-BmEcR, CVBE) (Bombyx mori, UniProt P49881); experiment: Z3 assay (HEK-293 clone Z3 with CVBE and 6x EcRE LacZ, β-galactosidase reporter); assay type: cell-based; details: 48 h, average of two wells
# T3 construct: expressed in transfected cells
# T3 sequence (P49881 86-606): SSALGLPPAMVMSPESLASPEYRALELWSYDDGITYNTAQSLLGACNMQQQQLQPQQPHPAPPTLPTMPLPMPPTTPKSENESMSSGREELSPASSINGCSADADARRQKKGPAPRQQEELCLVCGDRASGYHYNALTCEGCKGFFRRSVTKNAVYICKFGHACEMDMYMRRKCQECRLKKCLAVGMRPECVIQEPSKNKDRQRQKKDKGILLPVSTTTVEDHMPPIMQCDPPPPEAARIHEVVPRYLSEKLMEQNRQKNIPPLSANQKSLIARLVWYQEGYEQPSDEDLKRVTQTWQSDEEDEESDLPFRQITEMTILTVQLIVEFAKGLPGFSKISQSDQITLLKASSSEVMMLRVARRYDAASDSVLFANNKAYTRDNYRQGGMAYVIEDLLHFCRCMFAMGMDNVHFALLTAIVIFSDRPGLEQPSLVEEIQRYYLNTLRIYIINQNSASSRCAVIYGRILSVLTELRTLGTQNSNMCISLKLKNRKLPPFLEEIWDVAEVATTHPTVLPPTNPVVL
# [2] = molecular target: T4, GAL4AaEcR-DEF/VP16HsRXRβ-EF (Aedes aegypti, UniProt P49880); experiment: Transactivation reporter assay, AaEcR based switch (1.4) in NIH3T3 cells; assay type: cell-based; details: mammalian cells; FIGS. 2-5
# T4 construct: expressed in transfected cells; host or cells: mouse NIH3T3 cells
# T4 sequence (P49880 405-776 limits assumed): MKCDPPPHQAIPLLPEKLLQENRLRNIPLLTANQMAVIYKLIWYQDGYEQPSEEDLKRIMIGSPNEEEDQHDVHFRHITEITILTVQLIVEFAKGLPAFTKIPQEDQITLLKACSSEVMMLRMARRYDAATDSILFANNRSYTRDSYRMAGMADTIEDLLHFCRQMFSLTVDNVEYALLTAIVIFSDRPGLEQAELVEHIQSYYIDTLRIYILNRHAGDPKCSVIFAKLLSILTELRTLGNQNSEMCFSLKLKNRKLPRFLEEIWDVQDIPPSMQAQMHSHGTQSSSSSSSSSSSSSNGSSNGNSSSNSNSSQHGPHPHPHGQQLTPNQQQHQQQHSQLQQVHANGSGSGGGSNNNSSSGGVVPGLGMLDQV
# T4 sequence (P28702 299-533 partner limits assumed): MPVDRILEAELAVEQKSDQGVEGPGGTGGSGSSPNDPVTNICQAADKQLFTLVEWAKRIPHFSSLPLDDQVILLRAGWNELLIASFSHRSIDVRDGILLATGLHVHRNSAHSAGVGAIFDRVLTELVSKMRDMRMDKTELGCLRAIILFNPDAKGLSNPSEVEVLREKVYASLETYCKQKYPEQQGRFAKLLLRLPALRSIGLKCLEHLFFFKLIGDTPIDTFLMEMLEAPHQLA
# Experimental: Total relative light units (RLU) are shown.
# Twenty μl of lysate were assayed.
# [3] = test system: GAL4 DBD-CfEcR(DEF)/VP16AD-MmRXRE; details: CHO 13B3 clone, 48 h, average of two wells
# Description: GAL4 DBD-CfEcR(DEF)/VP16AD-MmRXRE: The wild-type D, E, and F domains from spruce budworm Choristoneura fumiferana EcR (“CfEcR-DEF”; SEQ ID NO: 1) were fused to a GAL4 DNA binding domain (“Gal4DBD1-147”; nucleotides 31 to 471 of SEQ ID NO: 2) and placed under the control of the SV40e promoter of pM vector (PT3119-5, Clontech, Palo Alto, Calif.). The D and E domains from Mus Musculus RXR (“MmRXR-DE”; SEQ ID NO: 22) were fused to the transactivation domain from VP16 (“VP16AD”; SEQ ID NO: 5) and placed under the control of the SV40e promoter of the pVP16 vector (PT3127-5, Clontech, Palo Alto, Calif.).
# CHO cells were transiently transfected with transcription cassettes for GAL4 DBD-CfEcR(DEF) and for VP16AD-MmRXRE controlled by SV40e promoters. Stably transfected cells were selected using Hygromycin. Individually isolated CHO cell clones were transiently transfected with a GAL4 RE-luciferase reporter (pFR-Luc, Stratagene, La Jolla, Calif.). The 13B3 clone was selected using Zeocin.
# (§1) Cells were trypsinized and diluted to a concentration of 2.5×10^4 cells mL. 100 μL of cell suspension was placed in each well of a 96 well plate and incubated at 37° C. under 5% CO2 for 24 h. Ligand stock solutions were prepared in DMSO and diluted 300 fold for all treatments.
# (§2) Luciferase reporter gene expression was measured 48 h after cell treatment using Bright-Glo™ Luciferase Assay System from Promega (E2650). Luminescence was detected at room temperature using a Dynex MLX microtiter plate luminometer.
# (§3) Each assay was conducted in two separate wells, and the two values were averaged. Fold inductions were calculated by dividing relative light units (“RLU”) in ligand treated cells with RLU in DMSO treated cells.
# [4] = test system: GAL4 DBD (1-147)-CfEcR(DEF)/VP16AD-βRXREF-LmUSPEF; details: CHO 27-63 clone, 48 h, average of two wells
# Description: GAL4 DBD (1-147)-CfEcR(DEF)/VP16AD-βRXREF-LmUSPEF: The wild-type D, E, and F domains from spruce budworm Choristoneura fumiferana EcR (“CfEcR-DEF”; SEQ ID NO: 1) were fused to a GAL4 DNA binding domain (“Gal4DBD1-147”; nucleotides 31 to 471 of SEQ ID NO: 2) and placed under the control of a phosphoglycerate kinase promoter (“PGK”; SEQ ID NO: 19). Helices 1 through 8 of the EF domains from Homo sapiens RXRβ and helices 9 through 12 of the EF domains of Locusta migratoria Ultraspiracle Protein (“HsRXRβ-EF-LmUSP-EF”; SEQ ID NO: 4) were fused to the transactivation domain from VP16 (“VP16AD”; SEQ ID NO: 5) and placed under the control of an elongation factor-1α promoter (“EF-1α”; SEQ ID NO: 20). Five consensus GAL4 response element binding sites (“5× GAL4RE”; comprising 5 copies of a GAL4RE comprising SEQ ID NO: 7) were fused to a synthetic TATA minimal promoter (SEQ ID NO: 21) and placed upstream of the luciferase reporter gene (SEQ ID NO: 9).
# CHO cells were transiently transfected with transcription cassettes for GAL4 DBD (1-147) CfEcR(DEF) and for VP16AD βRXREF-LmUSPEF controlled by ubiquitously active cellular promoters (PGK and EF-1α, respectively) on a single plasmid. Stably transfected cells were selected by Zeocin resistance. Individually isolated CHO cell clones were transiently transfected with a GAL4 RE-luciferase reporter (pFR Luc). 27-63 clone was selected using Hygromycin.
# as §1, with “treatments. Dose response testing consisted of 8 concentrations ranging from 33 μM to 0.01 μM.” for “treatments.”
# as §2, §3
Structure (SMILES),Fold Induction (10 μM) (DmEcR + LmUSP) [fold],Fold Induction (100 μM) (DmEcR + LmUSP) [fold],Fold Induction (10 μM) (CfEcR + LmUSP) [fold],"Fold Induction Average, AA_3T3V1 Assay 33 μM (Gal4DBD/AaEcR (DEF)) [fold]","Fold Induction Average, Z3V1 Assay 33 μM [1] [fold]",Activity on AaEcR based switches [2],"Fold Induction Average, 13B3V1 Assay 33 μM [3] [fold]","Fold Induction Average, 27-63V1 Assay 33 μM [4] [fold]"
C[C@H]1C[C@@H](Nc2ccc(F)cc2)c2cc(F)ccc2N1C(=O)c1ccc(F)cc1 (relative stereo) [Compound I-8],2,7,3,153,–,–,–,–
C[C@H]1C[C@H](Nc2ccc(F)cc2)c2cc(F)ccc2N1C(=O)c1ccc(F)cc1 (relative stereo) [Compound I-9],9,2,3,131,16,–,–,–
C[C@H]1C[C@@H](Nc2ccc(F)cc2)c2cc(F)ccc2N1C(=O)c1ccccc1 (relative stereo) [Compound I-10],1,1,1,164,–,–,–,–
C[C@H]1C[C@H](Nc2ccc(F)cc2)c2cc(F)ccc2N1C(=O)c1ccccc1 (relative stereo) [Compound I-11],5,3,1,387,32,–,–,–
Cc1ccc(C(=O)N2c3ccc(F)cc3[C@@H](Nc3ccc(F)cc3)C[C@@H]2C)cc1F (relative stereo) [Compound I-12],–,–,–,504,169,very active,815,–
COc1cccc(C(=O)N2c3ccc(C)cc3[C@@H](Nc3ccc(C)cc3)C[C@@H]2C)c1 (relative stereo) [Compound I-86],–,–,–,2,1,–,–,1
COC(=O)c1ccc(C(=O)N2c3ccc(F)cc3C(Nc3ccc(F)cc3)CC2C)cc1 (stereo not drawn) [Compound I-94],–,–,–,798,48,–,–,32
CC1CC(Nc2ccccc2)c2ccccc2N1C(=O)c1ccno1 (stereo not drawn) [Compound I-104],–,–,–,347,1,–,–,1
COc1ccc(C(=O)N2c3c(C)cccc3C(Nc3ccccc3C)CC2C)cc1 (stereo not drawn) [Compound I-135],–,–,–,1,1,–,1,3
CC1CC(N(C(=O)c2cccc(Br)c2)c2ccccc2)c2ccccc2N1C(=O)c1cccc(O)c1 (stereo not drawn) [Compound I-166],–,–,–,58,1,–,2,–
CCCc1ccc(C(=O)N2c3ccccc3C(Nc3ccccc3)CC2C)cc1 (stereo not drawn) [Compound I-173],–,–,–,172,3,–,1,–
CC1CC(Nc2ccccc2)c2ccccc2N1C(=O)COc1ccc(Cl)cc1 (stereo not drawn) [Compound I-180],–,–,–,9,1,–,1,–
Cc1ccccc1NC1CC(C)N(C(=O)c2ccccc2)c2c(C)cccc21 (stereo not drawn) [Compound I-184],–,–,–,1,–,–,–,1
CCNC(=O)N1c2ccccc2C(Nc2ccccc2)CC1C (stereo not drawn) [Compound I-210],–,–,–,12,–,–,–,1
